# Experimental data from ChEMBL document CHEMBL1201862, “PubChem BioAssay data set” (2004).
#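 Five concentrations, 48 hours, 96-well plates. GI50 marks 50% less growth.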 The source made the active and inactive calls. Rule as the data show it: active = GI50 up to about 1.1 µM and inactive = higher.
# Columns and labels:
# Test in all cases: inhibition of tumour cell growth, NCI panel, 48 h
# OVCAR-3 = test system: OVCAR-3
# UACC-257 = test system: UACC-257
# RXF 393 = test system: RXF 393
# ACHN = test system: ACHN
# TK-10 = test system: TK-10
# M14 = test system: M14
# SF-539 = test system: SF-539
# HOP-62 = test system: HOP-62
# OVCAR-8 = test system: OVCAR-8
# NCI-H522 = test system: NCI-H522
# 786-0 = test system: 786-0
# U-251 = test system: U-251
# MOLT-4 = test system: MOLT-4
# UO-31 = test system: UO-31
# HCT-15 = test system: HCT-15
# HCC 2998 = test system: HCC 2998
Structure (SMILES),GI50 (OVCAR-3),GI50 (UACC-257),GI50 (RXF 393),GI50 (ACHN),GI50 (TK-10),GI50 (M14),GI50 (SF-539),GI50 (HOP-62),GI50 (OVCAR-8),GI50 (NCI-H522),GI50 (786-0),GI50 (U-251),GI50 (MOLT-4),GI50 (UO-31),GI50 (HCT-15) [µM],GI50 (HCC 2998)
N/C(=N\O)N/N=C/c1ccc(C(F)(F)F)cc1,13.5 µM (inactive),32.2 µM (inactive),29.9 µM (inactive),4.61 µM (inactive),23.9 µM (inactive),10.6 µM (inactive),15.8 µM (inactive),15.5 µM (inactive),13.4 µM (inactive),10.3 µM (inactive),9.73 µM (inactive),16.8 µM (inactive),–,–,–,–
NC1=C(Br)C(=O)c2ncccc2C1=O,1.09 µM (active),0.483 µM (active),0.258 µM (active),0.406 µM (active),2.62 µM (inactive),0.673 µM (active),0.189 µM (active),0.632 µM (active),0.531 µM (active),0.321 µM (active),1.51 µM (inactive),0.177 µM (active),1.63 µM (inactive),0.316 µM (active),0.352,1.11 µM (active)
C[N+](C)(C)Cc1c(CC#N)[nH]c2ccccc12,> 100 µM (inactive),> 100 µM (inactive),> 100 µM (inactive),> 100 µM (inactive),> 100 µM (inactive),84.7 µM (inactive),> 100 µM (inactive),> 100 µM (inactive),> 100 µM (inactive),36.8 µM (inactive),24.7 µM (inactive),> 100 µM (inactive),24.5 µM (inactive),76.7 µM (inactive),> 100,> 100 µM (inactive)
COC1OC(CO)C(O)C(O)C1Br (configuration not stated),> 100 µM (inactive),> 100 µM (inactive),> 100 µM (inactive),> 100 µM (inactive),> 100 µM (inactive),> 100 µM (inactive),> 100 µM (inactive),> 100 µM (inactive),> 100 µM (inactive),> 100 µM (inactive),> 100 µM (inactive),> 100 µM (inactive),> 100 µM (inactive),–,> 100,> 100 µM (inactive)
NC(=O)CCC(NC(=O)Cc1ccccc1)C(=O)O.NC(CCC(=O)NC(=O)Cc1ccccc1)C(=O)O (configuration not stated),> 8130 µM (inactive),–,> 8130 µM (inactive),–,> 8130 µM (inactive),> 8130 µM (inactive),> 8130 µM (inactive),> 8130 µM (inactive),> 8130 µM (inactive),> 8130 µM (inactive),> 8130 µM (inactive),> 8130 µM (inactive),> 8130 µM (inactive),> 8130 µM (inactive),–,> 8130 µM (inactive)
Cn1c(C2CC(C)(C)c3c2c2ccccc2n3C)cc2ccccc21 (configuration not stated),64.6 µM (inactive),265 µM (inactive),> 304 µM (inactive),> 304 µM (inactive),> 304 µM (inactive),–,79.4 µM (inactive),> 304 µM (inactive),> 304 µM (inactive),72.8 µM (inactive),> 304 µM (inactive),> 304 µM (inactive),> 304 µM (inactive),–,> 304,> 304 µM (inactive)
O=Cc1cn(S(=O)(=O)c2ccccc2)c2ccccc12,41 µM (inactive),29.6 µM (inactive),95.5 µM (inactive),> 100 µM (inactive),> 100 µM (inactive),31.3 µM (inactive),27.5 µM (inactive),> 100 µM (inactive),33.5 µM (inactive),–,55.5 µM (inactive),27.6 µM (inactive),16.3 µM (inactive),18.7 µM (inactive),35.2,> 100 µM (inactive)
COc1ccc2c3c([nH]c2c1[N+](=O)[O-])C(C)N(Cc1ccccc1)CC3 (configuration not stated),3.52 µM (inactive),2.39 µM (inactive),3.21 µM (inactive),6.31 µM (inactive),9.25 µM (inactive),3.76 µM (inactive),1.79 µM (inactive),2.07 µM (inactive),3.72 µM (inactive),–,4.35 µM (inactive),2.67 µM (inactive),3.2 µM (inactive),13.8 µM (inactive),3.61,11.5 µM (inactive)
Nc1nc(SCCNC(=O)CCc2ccc(O)cc2)nc2c1ncn2C1OC(CO)C(O)C1O (configuration not stated),> 203 µM (inactive),> 203 µM (inactive),–,> 203 µM (inactive),> 203 µM (inactive),> 203 µM (inactive),> 203 µM (inactive),> 203 µM (inactive),> 203 µM (inactive),> 203 µM (inactive),> 203 µM (inactive),> 203 µM (inactive),> 203 µM (inactive),> 203 µM (inactive),> 203,> 203 µM (inactive)
O=C(c1ccccc1)c1nc2c(Cl)ccc(Cl)c2cc1C(Br)Br,1.55 µM (inactive),0.419 µM (active),2.34 µM (inactive),0.243 µM (active),1.43 µM (inactive),1.4 µM (inactive),0.484 µM (active),1.67 µM (inactive),1.44 µM (inactive),1.54 µM (inactive),0.286 µM (active),1.11 µM (active),1.36 µM (inactive),1.29 µM (inactive),0.69,2.06 µM (inactive)
Cc1ccc(C)c2c1CCc1cc3ccccc3nc1-2,> 100 µM (inactive),> 100 µM (inactive),–,> 100 µM (inactive),> 100 µM (inactive),> 100 µM (inactive),> 100 µM (inactive),> 100 µM (inactive),> 100 µM (inactive),> 100 µM (inactive),> 100 µM (inactive),> 100 µM (inactive),> 100 µM (inactive),> 100 µM (inactive),> 100,> 100 µM (inactive)
O=C1C2=C(c3ccccc31)C(c1ccc(F)cc1)N1C(=O)CCSC1=N2 (configuration not stated),> 100 µM (inactive),> 100 µM (inactive),–,> 100 µM (inactive),> 100 µM (inactive),> 100 µM (inactive),> 100 µM (inactive),> 100 µM (inactive),> 100 µM (inactive),72.8 µM (inactive),> 100 µM (inactive),> 100 µM (inactive),64.6 µM (inactive),39.9 µM (inactive),98.4,> 100 µM (inactive)
COc1c(C)cc2c(c1O)C1NC(C2)[C@H](O)N2C3COC(=O)[C@@]4(CS[C@@H](c5c(OC(C)=O)c(C)c6c(c53)OCO6)C12)NCCC1=C4NC2C=CC=CC12 (some centres not stated),< 0.01 µM (active),–,< 0.01 µM (active),< 0.01 µM (active),< 0.01 µM (active),< 0.01 µM (active),< 0.01 µM (active),< 0.01 µM (active),< 0.01 µM (active),–,< 0.01 µM (active),< 0.01 µM (active),< 0.01 µM (active),0.0148 µM (active),0.0104,< 0.01 µM (active)
CC[P+](C)(Cc1ccccc1)c1ccccc1.O=C(OC(C(=O)[O-])C(OC(=O)c1ccccc1)C(=O)O)c1ccccc1 (configuration not stated),–,> 100 µM (inactive),> 100 µM (inactive),–,> 100 µM (inactive),> 100 µM (inactive),> 100 µM (inactive),> 100 µM (inactive),> 100 µM (inactive),–,> 100 µM (inactive),> 100 µM (inactive),–,> 100 µM (inactive),> 100,> 100 µM (inactive)
Cc1ccc(C)c(NC(=O)C(=O)C(C2C(C)CC(=O)C2CC(=O)O)[N+](=O)[O-])c1 (configuration not stated),> 100 µM (inactive),> 100 µM (inactive),> 100 µM (inactive),> 100 µM (inactive),> 100 µM (inactive),> 100 µM (inactive),> 100 µM (inactive),> 100 µM (inactive),–,–,> 100 µM (inactive),> 100 µM (inactive),> 100 µM (inactive),> 100 µM (inactive),> 100,> 100 µM (inactive)
CC/C=C1\N=C(c2ccc(Cl)cc2)OC1=O,> 100 µM (inactive),> 100 µM (inactive),> 100 µM (inactive),> 100 µM (inactive),> 100 µM (inactive),> 100 µM (inactive),> 100 µM (inactive),> 100 µM (inactive),> 100 µM (inactive),> 100 µM (inactive),> 100 µM (inactive),–,> 100 µM (inactive),> 100 µM (inactive),> 100,> 100 µM (inactive)
COc1cc2ccnc(C#N)c2cc1OCc1ccccc1,> 100 µM (inactive),> 100 µM (inactive),–,> 100 µM (inactive),> 100 µM (inactive),> 100 µM (inactive),49.9 µM (inactive),35.6 µM (inactive),> 100 µM (inactive),50 µM (inactive),37.4 µM (inactive),48 µM (inactive),> 100 µM (inactive),> 100 µM (inactive),> 100,> 100 µM (inactive)
COc1ccc(C2=NC(C)(C)CO2)cc1,> 100 µM (inactive),> 100 µM (inactive),> 100 µM (inactive),> 100 µM (inactive),> 100 µM (inactive),–,> 100 µM (inactive),> 100 µM (inactive),> 100 µM (inactive),–,> 100 µM (inactive),> 100 µM (inactive),–,–,> 100,–
CC1CC2CC(=O)CC3(C1)C2CCCN3CCCO (configuration not stated),> 100 µM (inactive),> 100 µM (inactive),> 100 µM (inactive),> 100 µM (inactive),> 100 µM (inactive),> 100 µM (inactive),> 100 µM (inactive),> 100 µM (inactive),> 100 µM (inactive),> 100 µM (inactive),> 100 µM (inactive),> 100 µM (inactive),> 100 µM (inactive),> 100 µM (inactive),–,–
